From PubChem BioAssay (NCI)
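Step 1: Grow cells in 96-well plates. Step 2: Expose to compound for 48 hours at 5 concentrations. Step 3: Interpolate endpoints linearly; if unreached, use highest concentration. TGI denotes the concentration required for complete inhibition of growth.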

How the values were obtained:
Assay in all cases: DTP human tumour cell line panel, 48 h
SK-OV-3 ovarian = system: SK-OV-3 ovarian
NCI-H460 lung = system: NCI-H460 lung
CAKI-1 renal = system: CAKI-1 renal
HCT-116 colon = system: HCT-116 colon
SNB-75 CNS = system: SNB-75 CNS
SW-620 colon = system: SW-620 colon
NCI-H23 lung = system: NCI-H23 lung
A549 NSCLC = system: A549 NSCLC
SR leukemia = system: SR leukemia
SK-MEL-5 melanoma = system: SK-MEL-5 melanoma
OVCAR-8 ovarian = system: OVCAR-8 ovarian
SF-268 CNS = system: SF-268 CNS
U251 CNS = system: U251 CNS
SF-295 CNS = system: SF-295 CNS
PC-3 prostate = system: PC-3 prostate
M14 melanoma = system: M14 melanoma
T-47D breast = system: T-47D breast
COLO 205 colon = system: COLO 205 colon
TK-10 renal = system: TK-10 renal
A498 renal = system: A498 renal
OVCAR-3 ovarian = system: OVCAR-3 ovarian
SN12C renal = system: SN12C renal
ACHN renal = system: ACHN renal
MDA-MB-435 = system: MDA-MB-435
CCRF-CEM leukemia = system: CCRF-CEM leukemia
MOLT-4 leukemia = system: MOLT-4 leukemia
SF-539 CNS = system: SF-539 CNS
KM12 colon = system: KM12 colon
RPMI-8226 leukemia = system: RPMI-8226 leukemia
HS 578T breast = system: HS 578T breast
UACC-257 melanoma = system: UACC-257 melanoma
HCT-15 colon = system: HCT-15 colon
UO-31 renal = system: UO-31 renal
EKVX NSCLC = system: EKVX NSCLC
OVCAR-5 ovarian = system: OVCAR-5 ovarian
DU-145 prostate = system: DU-145 prostate
MALME-3M melanoma = system: MALME-3M melanoma
RXF 393 renal = system: RXF 393 renal
MCF7 breast = system: MCF7 breast
MDA-N = system: MDA-N
UACC-62 melanoma = system: UACC-62 melanoma
SK-MEL-28 melanoma = system: SK-MEL-28 melanoma
IGROV1 ovarian = system: IGROV1 ovarian
HOP-62 NSCLC = system: HOP-62 NSCLC
LOX IMVI melanoma = system: LOX IMVI melanoma
HOP-92 NSCLC = system: HOP-92 NSCLC
HCC-2998 colon = system: HCC-2998 colon
SK-MEL-2 melanoma = system: SK-MEL-2 melanoma
MDA-MB-231 breast = system: MDA-MB-231 breast
NCI/ADR-RES ovarian = system: NCI/ADR-RES ovarian
NCI-H226 lung = system: NCI-H226 lung
OVCAR-4 ovarian = system: OVCAR-4 ovarian
HT29 colon = system: HT29 colon
BT-549 breast = system: BT-549 breast
NCI-H522 lung = system: NCI-H522 lung
786-0 renal = system: 786-0 renal
SNB-19 CNS = system: SNB-19 CNS
K-562 leukemia = system: K-562 leukemia
HL-60(TB) leukemia = system: HL-60(TB) leukemia

Structure (SMILES): C=C1C(=O)OC2C1C(OC(=O)/C(C)=C/C)CC1(C)C(=O)CCC(=C)C21 (stereo not given)
- TGI (SK-OV-3 ovarian): 51.7 µM
- TGI (NCI-H460 lung): > 52.8 µM
- TGI (CAKI-1 renal): 17.9 µM
- TGI (HCT-116 colon): 31.2 µM
- TGI (SNB-75 CNS): 32 µM
- TGI (SW-620 colon): 23.4 µM
- TGI (NCI-H23 lung): 30.1 µM
- TGI (A549 NSCLC): 43.7 µM
- TGI (SR leukemia): > 28 µM
- TGI (SK-MEL-5 melanoma): 22.8 µM
- TGI (OVCAR-8 ovarian): 29.6 µM
- TGI (SF-268 CNS): 33.4 µM
- TGI (U251 CNS): > 54.4 µM
- TGI (SF-295 CNS): 35.8 µM
- TGI (PC-3 prostate): 22.9 µM
- TGI (M14 melanoma): 23.3 µM
- TGI (T-47D breast): 43.3 µM
- TGI (COLO 205 colon): 20.3 µM
- TGI (TK-10 renal): 25.7 µM
- TGI (A498 renal): 34 µM
- TGI (OVCAR-3 ovarian): 19.7 µM
- TGI (SN12C renal): 4.09 µM
- TGI (ACHN renal): 8.23 µM
- TGI (MDA-MB-435): > 58.8 µM
- TGI (CCRF-CEM leukemia): > 80.9 µM
- TGI (MOLT-4 leukemia): > 26.5 µM
- TGI (SF-539 CNS): 32.1 µM
- TGI (KM12 colon): 32 µM
- TGI (RPMI-8226 leukemia): 7.97 µM
- TGI (HS 578T breast): 78 µM
- TGI (UACC-257 melanoma): 28.5 µM
- TGI (HCT-15 colon): 10.3 µM
- TGI (UO-31 renal): 13.3 µM
- TGI (EKVX NSCLC): 33.8 µM
- TGI (OVCAR-5 ovarian): 32 µM
- TGI (DU-145 prostate): 24.2 µM
- TGI (MALME-3M melanoma): 23.3 µM
- TGI (RXF 393 renal): 11 µM
- TGI (MCF7 breast): 18 µM
- TGI (MDA-N): 18.1 µM
- TGI (UACC-62 melanoma): 23.5 µM
- TGI (SK-MEL-28 melanoma): > 42.8 µM
- TGI (IGROV1 ovarian): 26.6 µM
- TGI (HOP-62 NSCLC): 30.5 µM
- TGI (LOX IMVI melanoma): 13.2 µM
- TGI (HOP-92 NSCLC): 19.9 µM
- TGI (HCC-2998 colon): 26.6 µM
- TGI (SK-MEL-2 melanoma): 24.2 µM
- TGI (MDA-MB-231 breast): 38.4 µM
- TGI (NCI/ADR-RES ovarian): 33.8 µM
- TGI (NCI-H226 lung): 55.9 µM
- TGI (OVCAR-4 ovarian): 30.3 µM
- TGI (HT29 colon): 22 µM
- TGI (BT-549 breast): 18.7 µM
- TGI (NCI-H522 lung): 7.63 µM
- TGI (786-0 renal): 20.9 µM

Structure (SMILES): Nc1nc(SCc2ccccc2)c2ncn(Cc3ccccc3)c2n1
- TGI (SK-OV-3 ovarian): > 100 µM
- TGI (NCI-H460 lung): > 100 µM
- TGI (CAKI-1 renal): > 86.5 µM
- TGI (HCT-116 colon): > 100 µM
- TGI (SNB-75 CNS): > 100 µM
- TGI (SW-620 colon): > 100 µM
- TGI (NCI-H23 lung): > 100 µM
- TGI (A549 NSCLC): > 100 µM
- TGI (SR leukemia): > 100 µM
- TGI (SK-MEL-5 melanoma): > 100 µM
- TGI (OVCAR-8 ovarian): > 100 µM
- TGI (SF-268 CNS): > 100 µM
- TGI (SNB-19 CNS): > 100 µM
- TGI (U251 CNS): > 100 µM
- TGI (SF-295 CNS): > 100 µM
- TGI (PC-3 prostate): > 100 µM
- TGI (M14 melanoma): > 100 µM
- TGI (T-47D breast): > 100 µM
- TGI (COLO 205 colon): > 100 µM
- TGI (TK-10 renal): > 100 µM
- TGI (A498 renal): > 65.9 µM
- TGI (OVCAR-3 ovarian): > 100 µM
- TGI (SN12C renal): > 100 µM
- TGI (ACHN renal): > 100 µM
- TGI (MDA-MB-435): > 100 µM
- TGI (CCRF-CEM leukemia): > 100 µM
- TGI (MOLT-4 leukemia): > 100 µM
- TGI (SF-539 CNS): > 100 µM
- TGI (KM12 colon): > 100 µM
- TGI (RPMI-8226 leukemia): > 100 µM
- TGI (K-562 leukemia): > 100 µM
- TGI (HS 578T breast): > 100 µM
- TGI (UACC-257 melanoma): > 100 µM
- TGI (HCT-15 colon): > 100 µM
- TGI (UO-31 renal): > 100 µM
- TGI (EKVX NSCLC): > 100 µM
- TGI (OVCAR-5 ovarian): > 100 µM
- TGI (DU-145 prostate): > 100 µM
- TGI (MALME-3M melanoma): > 89.1 µM
- TGI (RXF 393 renal): > 100 µM
- TGI (MCF7 breast): > 100 µM
- TGI (MDA-N): > 100 µM
- TGI (UACC-62 melanoma): > 100 µM
- TGI (SK-MEL-28 melanoma): > 100 µM
- TGI (IGROV1 ovarian): > 100 µM
- TGI (HOP-62 NSCLC): > 100 µM
- TGI (LOX IMVI melanoma): > 100 µM
- TGI (HOP-92 NSCLC): > 100 µM
- TGI (HCC-2998 colon): > 100 µM
- TGI (SK-MEL-2 melanoma): > 100 µM
- TGI (MDA-MB-231 breast): > 100 µM
- TGI (NCI/ADR-RES ovarian): > 100 µM
- TGI (NCI-H226 lung): > 100 µM
- TGI (OVCAR-4 ovarian): > 100 µM
- TGI (HT29 colon): > 100 µM
- TGI (BT-549 breast): > 100 µM
- TGI (HL-60(TB) leukemia): > 100 µM
- TGI (NCI-H522 lung): > 100 µM
- TGI (786-0 renal): > 100 µM
